From publication PMC5677254, “Design, Synthesis, and Characterization of N-Oxide-Containing Heterocycles with in Vivo Sterilizing Antitubercular Activity” (Journal of Medicinal Chemistry, 2017)
Converted amounts (≈) assume the structure as drawn. “And” between values parts separate entries of the source, which are not always exact repeats. Equal values may be shown once. “Also recorded” adds a separate entry of the source. Read-outs that look alike come from different tables or passages of the source.

Key:
[1] = test system: Mtb H37Rv (ATCC 27294); assay: Resazurin microtiter assay (REMA), MIC90 against bacteria in active state; format: cell-based; conditions: Mycobacterium tuberculosis
[2] = test system: Escherichia coli (ATCC 25922); assay: Spectrum of activity, OD570 after 16 h; format: cell-based; conditions: ATCC25922, read-out: MIC90 (antimicrobial activity)
Description: (§1) Determination of Minimal Inhibitory Concentration (MIC90) Against Bacteria in Dormant […]
(§2) The selective compounds (SI ≥ 10) were tested against the mycobacterium in a dormant state. The cultures were thawed, diluted in Middlebrook 7H12 broth, and sonicated for 5 s. The cultures were diluted to obtain the concentration between […] and 2 × 10^6 CFU/mL. TwoHfold serial dilutions of the compounds were prepared in a volume of […] in white 96Hwell microtiter plates, followed by the addition of […] of the cell suspension. The microplate cultures were placed under anaerobic conditions (oxygen concentration less than 0.16%) by using an Anoxomat model WS8080 (MART Microbiology) followed by two cycles of evacuation and filling with a mixture of 10% hydrogen (H2), 5% carbon dioxide (CO2), and the balance with nitrogen (N2). An anaerobic indicator strip was placed inside the chamber to visually confirm the removal of oxygen. The plates were incubated at 37°C for 10 days and then transferred to an ambient gaseous condition (5% CO2H enriched air) incubator for a 28 h “recovery.” On day 11 (after the 28Hh aerobic recovery), we determined the luminescence and calculated the MIC90.4
(§3) To establish the spectrum activity, we determined the MIC90 against E. coli (ATCC 25922) and S. aureus (ATCC 29213) by measuring the optical density at 570 nm after 16 h of incubation in Mueller–Hinton II broth (Becton Dickinson, Sparks; Maryland, United States) and against C. albicans (ATCC 10231) at OD570 after 48 h in Cellgro RPMI 1640 medium (Mediatech Inc., Manassas, Virginia, United States). The MIC was defined as the lowest concentration resulting in 90% reduction in absorption relative to that of untreated control cultures.
(§4) Determination of Minimal Inhibitory Concentration Against Isogenic Monoresistant Strains

[3] = test system: Staphylococcus aureus (ATCC 29213); assay: Spectrum of activity, OD570 after 16 h; format: cell-based; conditions: ATCC29213, read-out: MIC90 (antimicrobial activity)
Description: as §1, §2, §3, §4

[4] = test system: Candida albicans (ATCC 10231); assay: Spectrum of activity, OD570 after 48 h; format: cell-based; conditions: ATCC10231, read-out: MIC90 (antimicrobial activity)
Description: as §1, §2, §3, §4

[5] = test system: M. tuberculosis H37Rv (ATCC 27294) in J774A.1 macrophages; assay: Intramacrophage activity; format: cell-based, Mycobacterium tuberculosis
[6] = test system: M. tuberculosis H37Rv (ATCC 27294); assay: Time-kill curves (bactericidal kinetics); format: cell-based, Mycobacterium tuberculosis
[7] = test system: human plasma; assay: Plasma protein binding assay (rapid equilibrium dialysis); format: in vitro ADME; conditions: 5 µM, 4 h at 37°C
Description: (§5) In vitro hydrolysis was performed by HPLC method using a Shimadzu HPLC model CBMH20A (Shimadzu®) and an Agilent® Eclipse XDB C18 column (250 × 4.6 mm, 5 µm). The isocratic flow was 60:40 (water:acetonitrile, v/v) and the flow rate was 1.0 mL/min. The volume injected was 20.0 µL and the wavelength in the detector (UVHVIS) was 210 nm. […]
(§6) of 100 µg/mL. This solution was then diluted to 20 µg/mL using two different PBS buffers to provide the following pH values: 5.5 and 7.4. During the assay, all samples were maintained at constant agitation using a shaker (400 rpm) at 37°C. The aliquots were taken from the solution at the following times: 0, 1, 2, 4, 8, 10, 20, and 24 h. All analyses were conducted in triplicate, and the results were expressed as the averages of the concentrations in percentages (±standard error of the […]
(§7) Plasma Protein Binding Assay […]
of the mixture in a RED (Rapid Equilibrium Dialysis, Pierce) device against PBS and incubated on an orbital shaker for 4 h at 37°C. Aliquots from plasmaH and PBSHbased samples were collected, an equal volume of PBS was added to the plasma sample, and an equal volume of plasma was added to the PBS sample. […] The samples were centrifuged and the supernatant was recovered and analyzed by Liquid chromatography–mass spectrometry (LCHMS)/MS. […]

[8] = Caco-2 permeability assay; format: in vitro ADME; conditions: human, basolateral to apical
Description: as §5, §6, §7
(§8) of the mixture in a RED (Rapid Equilibrium Dialysis, Pierce) device against PBS and incubated on an orbital shaker for 4 h at 37°C. […] The samples were centrifuged and the supernatant was recovered and analyzed by Liquid chromatography–mass spectrometry (LCHMS)/MS. […]
(§9) the twoHday interval. […] Similarly, for basolateral to apical (B→A) permeability, the compound was added to the B side and the amount of permeation was determined on the A side. […]

[9] = test system: Caco-2 cells; assay: Caco-2 permeability assay; format: in vitro ADME
Description: as §5, §6, §7, §8, §9

[10] = test system: M. tuberculosis Erdman; assay: Infection and treatment: efficacy against acute TB in mice; format: in vivo, mouse; conditions: 200 mg/kg in microemulsion, once daily oral gavage, 5 days/week, day 10 to 29 postinfection, BALB/c mice
[11] = test system: M. tuberculosis H37Rv; assay: Microarray gene expression analysis; format: cell-based, Mycobacterium tuberculosis; conditions: 4 h of exposure at 2× MIC, versus vehicle
[12] = test system: BALB/c mice; conditions: H&E, group treated with compound 8
[13] = test system: cytochrome P450 isoforms (all isoforms tested); assay: in vitro; conditions: human, microsomes
[14] = Cytotoxicity against MRC-5 cell line; conditions: human, cytotoxicity IC50, MRC-5 cell line
[15] = test system: mouse peripheral blood reticulocytes; conditions: 50, 100, 200 and 500 mg/kg by gavage, Swiss mice
[16] = test system: BALB/c mice; assay: Tolerability test in BALB/c mice and toxicological analysis; conditions: 10 days
[17] = 200 mg/kg daily oral, vs control group

For `O=C(N/N=C/c1ccc2no[n+]([O-])c2c1)c1ccncc1` [Compound 8, (E)-6-((2-Isonicotinoylhydrazono)methyl)benzo[c][1,2,5]oxadiazole 1-Oxide], the MIC90 ([1]; actively replicating M. tuberculosis H37Rv, REMA, read-out: MIC90) was 1.1 µM and 0.31 µg/mL, the MIC90 ([1]; supplementary CSV, read-out: Mtb MIC90) was 1.1 µM (≈ 0.312 µg/mL) and the MIC90 [2] was greater than 200 µM. The MIC90 [3] was greater than 200 µM, the MIC90 [4] was greater than 200 µM and the intracellular inhibition [5] was “around 90%”. The “reduction of CFU (sterilization of cultures)” value ([6]; after 48 h of exposure, 41.24 μM) was roughly 6.7 log10, the bactericidal profile ([6]; time-kill kinetic experiments up to 15 days) was “bactericidal with an early bactericidal effect” and the “human plasma protein binding (% free)” value [7] was 46.5 % free. For the same compound, the Papp B→A [8] was 3.9 ×10⁻⁶ cm/s, the Caco-2 permeability profile [9] was “good permeability profile” and the “Mtb colonies (CFU) in homogenized lungs” value [10] was “reduction of Mtb to undetectable levels; also recorded: no colonies were observed; also recorded: No detectable Mtb”. The “effect on gene expression” value [11] was “significant upregulation in the majority of ribosomal genes as well as all genes encoding subunits of ATP synthase”, the histology of kidneys [12] was “morphologically normal” and the IC50 [13] was greater than 15 µM. The IC50 [14] was 147 µg/mL (≈ 519 µM), the “genotoxicity (micronucleated reticulocytes)” value [15] was “not genotoxic at any concentration tested” and the “behavior parameters (hippocratic screening)” value ([16]; 200 mg/kg daily oral gavage) was “No significant variation in the behavior”. For the same compound, the “alanine aminotransferase in plasma” value [16, 17] was “no significant differences”, the “alkaline phosphatase in plasma” value [16, 17] was “no significant differences” and the “aspartate aminotransferase in plasma” value [16, 17] was “no significant differences”. For the same compound, the “changes in the weight of organs (heart, lungs, spleen, kidneys, liver)” value [16, 17] was “No statistically significant difference”.
